Numbers after ± are expanded uncertainties.
How the values were obtained:
[1] = Liquid; for mass density: 298.15 K, 101.33 kPa
[2] = refractive index (Na D-line) (dimensionless); conditions: 298.15 K; 101.33 kPa; Liquid

SMILES | mass density ([1]; Vibrating tube method) | Normal boiling temperature [1] | refractive index [2] | mass density [1]
Cc1ccc(C)cc1 [1,4-dimethylbenzene] | 856.55 ± 0.56 kg/m3 | 138.08 ± 0.5 °C | 1.493 ± 0.001 | –
CC1CCCCC1 [methylcyclohexane] | – | 100.81 ± 0.5 °C | 1.4204 ± 0.0006 | 764.87 ± 0.44 kg/m3
CCO [ethanol] | 785.04 ± 0.51 kg/m3 | 78.26 ± 0.1 °C | 1.3592 ± 0.0006 | –

— the NIST ThermoML archive (doi:10.1021/je0342318)
